# Entries after “also recorded” stand apart in the source; their conditions may differ.
# Experiments:
# [1] = test system: MDA-MB-231 cells; assay: Live-cell impedance measurements of MDA-MB-231 cells after compound treatment; format: cell-based, human
# Description: (§1) Impedance measurements were performed with two different electric field configurations named vertical field (VF) and lateral field (LF) and at four different frequencies of 250 Hz, 1 kHz, 4 kHz, and 16 kHz, as shown in FIG. 27A. In total, 9 impedance parameter maps were measured per field configuration, including magnitude and phase for the 4 frequencies and a Direct Current (DC, 0 Hz) magnitude. […] Connections were observed between biological information and measurements at frequency magnitudes, phases, and DC.
# (§2) To perform field-based impedance measurements across multiple frequencies, a voltage stimulation was applied which is the summation of the four different frequency signals and return currents were measured using a transimpedance amplifier (TIA) configuration with a feedback gain of 18 MΩ. The magnitudes of the AC voltage signals were scaled to create similar output amplitudes that were measured by the TIA configuration (0.2 V/250 Hz, 0.08 V/1 kHz, 0.04 V/4 kHz, and 0.02 V/16 kHz for lateral field, 0.25 V/250 Hz, 0.1 V/1 kHz, 0.04 V/4 kHz, and 0.025 V/16 kHz for vertical field). Six of the 96 wells were scanned at a time taking 2.5 s, resulting in a total scan time across the well plate of 40 s. A fast Fourier transform (FFT) was used to extract the magnitude and phase of each of the four frequencies and the DC component—9 impedance parameter maps for each field configuration.
# (§3) A reference impedance map was used to determine the location of cells: a threshold was set above the electrodes' default impedance in solution, and the presence of a cell above an electrode then increased the impedance beyond the threshold for detection. Typically, the VF 4 kHz map provided the best contrast for generating the cell mask. For magnitude, phase, and DC, the median value of electrodes with cells was then calculated. An additional epoxy mask was calculated in a similar manner to remove electrodes which had spillover epoxy from well plate attachment. Before each cell plating, a reference measurement was taken in empty culture media to calculate the epoxy mask.
# (§4) Transient features such as motility and migration were generated from impedance videos through a root-mean-square (RMS) calculation. The difference between two unmasked image frames was taken (the epoxy mask was still used if applicable), then the RMS calculation was performed across the pixels of the difference map. To normalize for changes in magnitude, the calculated RMS was then divided by the median value of the cell-masked well distribution. Typically, the VF 4 kHz map was used for the RMS signal generation.
# (§5) Compound treatments were performed using a half media exchange. To prepare for compound addition, half the media from each well was removed. […]
# [2] = test system: Caco-2 cells; assay: Caco-2 impedance barrier function measurements (341 compound screen, dose response, Amonafide analogues); format: cell-based, human; details: for change in Caco-2 barrier function at 12 hours post-compound application: 10 μM, versus control; for barrier increase (maximum VF 250 Hz) over the 48-hours: screen at 10 μM
# Description: To execute and analyze the screens, cells were seeded on five CMOS 96-wellplates, allowed to grow for 24 hours for A549 or 48 hours for Caco-2, compounds were added at 10 μM in 1% DMSO via a half media swap using an OpenTrons liquid handling robot. Effects were measured for 48 hours, with impedance measurements taken every 15 minutes. The many field/frequency and calculated parameters were then normalized to a timepoint one hour before compound addition. The array of normalized parameters at timepoints logarithmically spaced from compound addition to +48 hours were then used for a principal component analysis (PCA) and unbiased clustering using the top 20 PCA dimensions.
# Compound treatments were performed using a half media exchange. To prepare for compound addition, half the media from each well was removed. Compounds were prepared at 2× concentration in cell culture media, and the 2× compound solution was then added to the wells. Care was taken to keep DMSO concentration below 1%, compound dilutions were performed with a constant DMSO concentration. Compound in media was temperature- and CO2-equilibrated prior to addition. All compounds including the 341 compound library were obtained from Selleckchem Chemicals (Houston, TX). For the screening analysis, the pathway and target information provided by Selleckchem Chemicals was curated together.
# In the second approach, rather than comparing 5 measurement parameters, all field and calculation parameters were used to perform an unbiased phenotypic profiling with a larger compound library. A total of 341 compounds were chosen as a sub-set of an FDA approved library and applied on two cell types, A549 and Caco-2. At least two compounds per target were chosen for conserved phenotype effects. For the screens, compounds were added 24 or 48 hours post cell seeding and measured up to 48 hours after the compound addition. Time normalization, a principal component analysis (PCA), and unbiased clustering were sequentially performed on the high-dimensional data readouts (VF & LF magnitudes, phase, and DC). This unbiased approach ensured compound separation based solely on functional and morphological effects of the cells, with no bias of the targets/pathways of the compounds.
# [3] = test system: ZO-1 in Caco-2 cells; assay: Immunofluorescence imaging and quantification of ZO-1 in Caco-2 cells; format: cell-based, human; details: 48 hours post-compound treatment
# Description: For immunofluorescence imaging, cells were grown on coverslips and then either allowed to grow for 48 hours or treated with relevant compounds for 48 hours. Cells were then fixed in 4% paraformaldehyde, washed, permeabilized with 0.5% Triton-X 100 in PBS, and then subjected to antibody incubation. Antibodies used were anti-E-Cadherin (obtained from Cell Signaling Technology, Danvers, MA, as cat no: 3195T), anti-ZO1 (obtained from Thermo Fisher, Waltham, MA, as cat no:617300) and anti-Occludin (obtained from Thermo Fisher as cat no: 331500). Alexa Fluor 488 and 568 secondary antibodies were used. Coverslips were mounted in Vectashield® antifade mounting medium with DAPI.
# Imaging was performed using a Yokogawa Wi spinning disk confocal on an inverted Nikon Ti fluorescence microscope equipped with Hamamatsu ORCA-Fusion BT CMOS camera (6.5 μm^2 photodiode), Lumencor SOLA fluorescence light source, and Nikon LUN-F XL solid state laser combiner: 405 nm (80 mW), 445 nm (35 mW), 488 nm (80 mW), 514 nm (50 mW), 561 nm (65 mW), and 640 nm (60 mW). For imaging, the widefield modality of the microscope was typically used, and all imaging was done using a 20× objective. Acquisition was performed using consistent exposure across samples to enable intensity quantification. Images were processed using the open source image processing software FIJI.
# Quantification of ZO-1 in the cell-membrane and nucleus was performed by manually defining ROIs for the cell membrane and nucleus. Mean integrated intensity was calculated within the ROI. All quantification was performed in raw, unprocessed images.
# [4] = test system: Caco-2 cells; assay: Caco-2 impedance barrier function measurements (341 compound screen, dose response, Amonafide analogues); format: cell-based, human; details: dose response 1 nM to 10 μM
# [5] = test system: MDCK cells; assay: Live-cell impedance measurements of MDCK cells after compound treatment (water transport, doming); format: cell-based, canine
# Description: as §1, §2, §3, §4, §5
# [6] = test system: autosomal dominant polycystic kidney disease (ADPKD); details: cited from earlier work
# [7] = test system: many cell types; assay: Vertical field (VF) impedance across many cell types; format: cell-based
# Description: as §1, §2
smiles,measurement,setting,value
C=C1[C@@H](C)[C@H]2[C@H](Cc3ccccc3)NC(=O)[C@]23[C@H](OC(C)=O)/C=C/[C@@](C)(O)C(=O)[C@@H](C)C/C=C/[C@H]3[C@@H]1O [Cytochalasin D],attachment,[1],decreased
same,concentration giving immediate cell size decrease,[1],≥ 0.2 µM
same,concentration giving subsequent cell size increase,[1],≥ 1 µM
same,motility (RMS),[1],decrease
CCN(CC)CCN1C(=O)c2cccc3cc(N)cc(c23)C1=O [NSC 308848],change in Caco-2 barrier function at 12 hours post-compound application,[2],rapid increase in barrier
same,"ZO-1 levels and distribution (membrane, nucleus)",[3],Significant increases in ZO-1 in the membrane and nucleus
CN(C)CCN1C(=O)c2cccc3cc(N)cc(c23)C1=O [Amonafide],change in Caco-2 barrier function at 12 hours post-compound application,[2],rapid increase in barrier
same,barrier increase (maximum VF 250 Hz) over the 48-hours,[2],largest barrier increase; also recorded: highest observed increase in barrier
same,"ZO-1 levels and distribution (membrane, nucleus)",[3],"increase in membrane ZO-1 levels, with additional nuclear localization; also recorded: Significant increases in ZO-1 in the membrane and nucleus"
same,time course of barrier increase,[4],rapid increase in barrier; also recorded: rapid and sustained increase
Cc1cc(C2CCCCC2)n(O)c(=O)c1 [Ciclopirox],barrier increase (maximum VF 250 Hz) over the 48-hours,[2],largest barrier increase; also recorded: increased the barrier; also recorded: highest observed increase in barrier
same,"ZO-1 levels and distribution (membrane, nucleus)",[3],did not affect ZO-1 distribution or expression
same,time course of barrier increase,[4],more gradual increase in barrier
CN(C)CCN1C(=O)c2cccc3cc(NC(N)=O)cc(c23)C1=O [UNBS5162],change in Caco-2 barrier function at 12 hours post-compound application,[2],did not affect the barrier
same,"ZO-1 levels and distribution (membrane, nucleus)",[3],did not affect ZO-1 levels or distribution
COc1cc(Nc2ncc3c(n2)-c2ccc(Cl)cc2C(c2c(F)cccc2OC)=NC3)ccc1C(=O)O [Alisertib],cell surface attachment,[5],sharp decrease
same,transepithelial water transport,[5],accelerated
same,domes (doming),"[5]; Alisertib 1 μM, Bosutinib 10 μM",increased doming; also recorded: Domes were only observed
same,water transport detachment (LF 16 kHz) with respect to the control,[5]; mean±s.d. for 3 wells,accelerated
same,ADPKD in animal models,[6],exacerbate
COc1ccc(C[C@H]2NC[C@H](O)[C@H]2OC(C)=O)cc1 [Anisomycin],VF (vertical field impedance),[7],increases in VF

# Source: patent publication US20240385168A1, “SEMICONDUCTOR-BASED MEASUREMENT DEVICES” (CytoTronics, priority 2023, published 2024)
